# Source: patent US6900198B2, “Synthetic catalytic free radical scavengers useful as antioxidants for prevention and therapy of disease” (Eukarion, Inc., priority 1995, dated 2005)
# Assays:
# [1] = tested on: Isolated Iron-overloaded Rat Hearts; assay: Isolated iron-overloaded rat hearts submitted to ischemia and reperfusion
# Description: Rats received an intramuscular injection of 0.25 ml of an iron-dextran solution (100 g iron hydroxide, 99 g dextran, water up to 11) every third day during a 5-week period to achieve a significant iron overload in cardiac tissue. At the end of this treatment, rats were anesthetized with sodium pentobarbital (40 mg/kg) and heparin (1,000 IU/kg) was administered via a femoral vein. Hearts were then removed and rapidly perfused through the aorta according to the technique described by Langendorff [Langendorff, O., Pflügers Arch. 61: 291, 1895] at a constant flow rate of 11 ml/minute. […] At the end of this period, systolic and diastolic ventricular pressures and heart beat rate (HR) were recorded through a pressure transducer linked to the ventricular balloon. Left Ventricular Developed Pressure (LVDP) was calculated by the difference between systolic and diastolic pressure and the product HR×LVDP was taken as an index of oxygen consumption. […] During this 15 minute reperfusion, heart rate, and diastolic and systolic pressures were monitored. Early ventricular fibrillations were analyzed 1 min. after the start of the reperfusion. […]
# Mitochondria were classified into Type A (normal), Type B (swollen, unbroken), and Type C (ruptured membranes). […] The results are expressed as percentages.
# [2] = tested on: Human dermal fibroblasts (HF cells); assay: Protection against t-butyl hydroperoxide toxicity in human fibroblasts (XTT); assay type: cell-based; conditions: 80 μM with 0.5 mM t-BHP
# Description: Human dermal fibroblasts (HF cells) were obtained from the American type tissue Culture Collection at passage 1 and cultured and propagated in a medium (HF medium) consisting of Dulbecco's Modified Eagle's Medium with 4.5 g/l D-glucose, 10% calf serum 4 mM glutamine, 50 units/ml penicillin, and 50 μg/ml streptomycin in a 37° C. humidified incubator equilibrated with 5% CO2. Cells were used at passages 5 or 6 for experiments. For cell protection assays, HF cells were seeded at a density of about 15,000 cells per cm2 onto 96-well culture plates and allowed to grow to confluence. […] After 2 hr., the absorbance at 490 nm was measured in a BioRad (Richmond, Calif.) Model 3550 plate-reader, using a reference wavelength of 655 nm. […] Absorbance measurements for blank wells, containing HF medium and XTT reagent but no cells, were also determined. […] Fresh HF medium was then added and cell viability assessed using the XTT reagent as described above. […]
# Cell protection assays were performed as described under Experimental Procedures with salen-manganese complexes administered at the indicated concentrations and t-BHP at 0.5 mM. Cell viability was assessed using the XTT reagent as described and is expressed as the absorbance at 490 nm uncorrected for blank. […]
# [3] = tested on: neurons; assay: Amyloid peptide toxicity in neurons in vitro; assay type: cell-based
# [4] = Peroxidase activity, H2O2-dependent oxidation of ABTS; assay type: biochemical; conditions: C7 with 29 units/ml bovine liver catalase, 10 mM H2O2
# Description: (§1) Peroxidase activity was assayed by monitoring the hydrogen peroxide-dependent oxidation of 2,2′-azino-bis(3-ethylbenzthiazoline-6) sulfonic acid (ABTS) spectrophotometrically. Standard assay mixtures consisted of 50 mM sodium phosphate, pH 8.1, 0.9% sodium chloride, 0.5 mM ABTS, and H2O2 and salen manganese complex as indicated. Where indicated, 50 mM sodium phosphate buffers of pH 6.0 or pH 7.1 were substituted. Assays were conducted at 27±0.2° C. ABTS oxidation was monitored at 740 or 500 nm to eliminate interference by the salen manganese complexes, many of which absorb in the vicinity of the λmax of oxidized ABTS, and to avoid absorbance values that exceeded the linear range of the spectrophotometer. The amount of oxidized ABTS was estimated using an Δε740 of 20,300 M^−1cm^−1 or an Δε500 of 3400 M^−1cm^−1 calculated based upon the published molar extinction coefficient oat 405 nm (36,800).
# Compounds were assayed for SOD as described under Experimental procedures, using cytochrome C as acceptor. The concentration of each compound showing half-maximal activity in this assay is presented. Catalase and peroxidase activities were conducted as described under Experimental Procedures, with 10 μM salen manganese complex. The H2O2 concentration was 10 mM and 0.2 mM in the catalase and peroxidase assays, respectively. Where denoted, “nd” means that the assay was not performed on this compound.
# Catalase and peroxidase activities were assayed as described in Example 2. Catalase assays contained 10 μM salen-manganese complex and 10 mM hydrogen peroxide. Peroxidase assays contained 10 μM salen-manganese complex and 0.2 mM hydrogen peroxide. Glucose-glucose oxidase toxicity assays were performed using human dermal fibroblasts as described in Example 2.
# [5] = Peroxidase activity toward t-BHP, ABTS oxidation; assay type: biochemical; conditions: 1 mM t-BHP versus same concentration of H2O2
# Description: as §1
# (In comparison, horseradish peroxidase utilized t-BHP with an ABTS oxidation rate that was about 5.4% of the rate with H2O2).
smiles,measurement,setting,value
[Cl][Mn]1[O]c2ccccc2C=NCCN=Cc2ccccc2[O]1 [Compound C7],"protection of hearts from ischemia/reoxygenation damage, functionally and structurally",[1]; C7 50 μM,effectively protected hearts
same,"Mitochondria Type B (swollen, unbroken)",[1]; electron microscopy after 15 minute reperfusion,15.2#□ %
same,reduced viability at 80 μM relative to 40 μM together with t-BHP,[2],possible synergistic toxicity with t-BHP
same,protection of neurons against amyloid peptide toxicity,[3],protect neurons against amyloid peptide toxicity
same,total ABTS oxidized in the presence of added catalase,[4],18 µM
same,ABTS oxidation rate with t-BHP as percent of the rate with H2O2,[5],about 0.5%
